These results are taken from US20200037588A1, “METHODS OF A DROSOPHILA MODEL FOR CHRONIC MYELOID LEUKEMIA (CML) TREATMENT” (American University of Beirut, priority 2018, published 2020).

Read-outs that look alike come from different tables or passages of the source.

Series [1] relates to GMR-GAL4>w1118 control flies. Conditions: in vivo.
For a further series, the system named is BCR-ABL1. The conditions noted are these: cited from earlier work.
Series [2] deals with GMR-GAL4>w1118 control flies. The series is described as follows: Eye development of control flies fed TKI (SEM).

For the molecule `Cc1cn(-c2cc(NC(=O)c3ccc(C)c(Nc4nccc(-c5cccnc5)n4)c3)cc(C(F)(F)F)c2)cn1` [nilotinib], the “eye development in control flies fed drug (in words)” value (from here on “eye development”) in series [1] is listed as “Normal development”. Moreover, the “potency for BCR-AB1L inhibition in vitro compared to imatinib” value with BCR-ABL1 was 20 fold.
In the case of `Cc1ccc(NC(=O)c2ccc(CN3CCN(C)CC3)cc2)cc1Nc1nccc(-c2cccnc2)n1` [imatinib], in series [1], the “eye development” value is “Normal development”.
Consider `Cc1nc(Nc2ncc(C(=O)Nc3c(C)cccc3Cl)s2)cc(N2CCN(CCO)CC2)n1` [dasatinib], for which the “eye development” value in series [1] is “Normal development”.
Take `Cc1ccc(C(=O)Nc2ccc(CN3CCN(C)CC3)c(C(F)(F)F)c2)cc1C#Cc1cnc2cccnn12` [ponatinib]: in series [2], the “eye development” value is recorded as “Normal development”.
